Results reported in article PMC7490411 (Signal Transduction and Targeted Therapy, 2020).

What was measured:
SK-OV-3 cells = test: NK-cell-mediated ADCC, LDH release cytotoxicity assay, Herceptin; format: cell-based, human
Protocol: The cytotoxicity of NK cells was measured using the CyQUANT™ LDH Cytotoxicity Assay Kit (Invitrogen™, #C20300) according to the manufacturer’s instructions. Briefly, enriched NK cells (6 × 10^5 /ml) were cultured with the same volume of Mino cell and SK-OV-3 cell (1-2 × 10^4 /ml) in a 96-well plate for 4 h with Rituximab and Herceptin (10 μg/mL) and CHMFL-BTK-85 or PCI32765 at 37°C in a humidified CO2 incubator prior to removal of the supernatant for lactate dehydrogenase (LDH) release measurements. Calculate % Cytotoxicity by using the following formula: %Cytotoxicity = (Compound-treated LDH activity-Spontaneous LDH activity)/(Maximum LDH activity-Spontaneous LDH activity)*100.

MET = test: KINOMEscan; format: binding; settings: 1000 nM
MST1 = test: KINOMEscan; format: binding; settings: 1000 nM
PIM3 = test: KINOMEscan; format: binding; settings: 1000 nM
MAP4K5 = test: KINOMEscan; format: binding; settings: 1000 nM
ALK(C1156Y) = test: KINOMEscan; format: binding; settings: 1000 nM
ABL1-phosphorylated = test: KINOMEscan; format: binding; settings: 1000 nM
TAOK3 = test: KINOMEscan; format: binding; settings: 1000 nM
ALK(L1196M) = test: KINOMEscan; format: binding; settings: 1000 nM
p38-gamma = test: KINOMEscan; format: binding; settings: 1000 nM
[1] = system: ABL1(T315I)-phosphorylated; test: KINOMEscan; format: binding; settings: 1000 nM
TLK1 = test: KINOMEscan; format: binding; settings: 1000 nM
TXK = molecular target: T1, TXK (Homo sapiens, UniProt P42681); test: ADP-Glo biochemical kinase assay; settings: read-out: IC50 against TXK
T1 construct: purchased Invitrogen (Carlsbad, CA, USA)
T1 sequence (P42681 whole entry): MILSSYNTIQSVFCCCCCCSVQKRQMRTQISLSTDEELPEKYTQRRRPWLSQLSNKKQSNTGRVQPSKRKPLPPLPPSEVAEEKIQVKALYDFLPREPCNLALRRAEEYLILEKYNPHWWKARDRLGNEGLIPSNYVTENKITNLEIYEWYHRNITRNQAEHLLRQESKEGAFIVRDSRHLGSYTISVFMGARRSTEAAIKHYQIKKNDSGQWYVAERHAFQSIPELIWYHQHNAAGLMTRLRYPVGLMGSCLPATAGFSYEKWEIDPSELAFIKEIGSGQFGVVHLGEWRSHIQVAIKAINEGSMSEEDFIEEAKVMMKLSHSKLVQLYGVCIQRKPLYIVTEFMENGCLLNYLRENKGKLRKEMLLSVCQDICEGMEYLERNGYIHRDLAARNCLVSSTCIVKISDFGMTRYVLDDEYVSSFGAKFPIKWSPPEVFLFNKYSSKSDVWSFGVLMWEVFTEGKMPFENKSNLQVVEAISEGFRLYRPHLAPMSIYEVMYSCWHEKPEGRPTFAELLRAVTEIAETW
Source text: (§1) The biochemical tests of BMX, BLK, JAK3, TXK, HER2, HER4, ITK, EGFR, and BTK were provided by Invitrogen (Carlsbad, CA, USA).

BMX = molecular target: T2, BMX (Homo sapiens, UniProt P51813); test: ADP-Glo biochemical kinase assay
T2 construct: purchased Invitrogen (Carlsbad, CA, USA)
T2 sequence (P51813 1-675): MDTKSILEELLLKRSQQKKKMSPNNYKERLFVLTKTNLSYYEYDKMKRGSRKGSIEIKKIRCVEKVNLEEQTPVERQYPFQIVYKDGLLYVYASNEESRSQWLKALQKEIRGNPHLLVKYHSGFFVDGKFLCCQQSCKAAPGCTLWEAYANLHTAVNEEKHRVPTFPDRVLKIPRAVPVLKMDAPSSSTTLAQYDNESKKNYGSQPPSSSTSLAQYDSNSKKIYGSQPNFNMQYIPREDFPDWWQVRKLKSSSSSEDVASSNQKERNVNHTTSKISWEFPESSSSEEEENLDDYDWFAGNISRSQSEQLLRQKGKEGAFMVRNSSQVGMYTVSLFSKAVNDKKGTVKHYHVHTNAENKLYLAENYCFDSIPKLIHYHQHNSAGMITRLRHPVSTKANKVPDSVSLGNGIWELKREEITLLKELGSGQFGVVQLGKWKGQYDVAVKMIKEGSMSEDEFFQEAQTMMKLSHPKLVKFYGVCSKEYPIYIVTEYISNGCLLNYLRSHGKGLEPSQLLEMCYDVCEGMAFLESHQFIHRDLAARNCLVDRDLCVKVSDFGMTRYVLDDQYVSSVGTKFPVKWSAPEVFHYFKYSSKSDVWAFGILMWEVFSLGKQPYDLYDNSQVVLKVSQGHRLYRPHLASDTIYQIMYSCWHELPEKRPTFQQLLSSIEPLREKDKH
Source text: as §1

FLT3(R834Q) = test: KINOMEscan; format: binding; settings: 1000 nM
MAP3K3 = test: KINOMEscan; format: binding; settings: 1000 nM
MYLK4 = test: KINOMEscan; format: binding; settings: 1000 nM
[2] = system: ABL1(F317I)-phosphorylated; test: KINOMEscan; format: binding; settings: 1000 nM
PRKCE = test: KINOMEscan; format: binding; settings: 1000 nM
TIE1 = test: KINOMEscan; format: binding; settings: 1000 nM
STK35 = test: KINOMEscan; format: binding; settings: 1000 nM
TRPM6 = test: KINOMEscan; format: binding; settings: 1000 nM
GRK2 = test: KINOMEscan; format: binding; settings: 1000 nM
KIT-autoinhibited = test: KINOMEscan; format: binding; settings: 1000 nM
[3] = system: NK cells co-seeded with SK-OV-3 cells; test: IFN-γ secretion ELISA, NK cells co-cultured with SK-OV-3 cells in presence of Herceptin; format: cell-based, human; settings: SK-OV-3 co-culture; 0.1 to 3 μM
Protocol: Peripheral blood mononuclear cells (PBMC) were separated from the blood of healthy donors by Ficoll density gradient centrifugation (Histopaque-1077, Sigma-Aldrich). Cells were enriched using a MACS® human NK cell negative-selection isolation kit (Miltenyi Biotec, Germany) according to the manufacturer’s instructions. Purified NK cells were cultured with 1000U/ml IL2 for 48h. […] The concentrations of interferon (IFN)-γ in cell culture supernatants obtained from three independent experiments were detected using commercial ELISA kits (absin, #abs510007), according to the manufacturer’s instructions. The human IFN-γ kit sensitivity was 7.8 pg/ml.

p38-delta = test: KINOMEscan; format: binding; settings: 1000 nM
[4] = system: BTK Y223 autophosphorylation; test: signaling pathway western blot in TMD8, REC-1 and DOHH2 cells; format: cell-based; settings: 4 h
Source text: The cells were then washed in PBS and lysed in cell lysis buffer. BTK, Phospho-BTK(Tyr223), PLCγ2, Phospho-PLCγ2 (Tyr1217), Phospho-AKT […], Phospho-NF-κB p65(Ser536), ERK, Phospho-p44/42MAPK (ERK1/2) (Thr202/Tyr204), AKT and GAPDH antibody (Cell signaling Technology) were used for immunoblotting.

PRKCI = test: KINOMEscan; format: binding; settings: 1000 nM

C=CC(=O)Nc1cc(Nc2cc(-c3cccc(NC(=O)c4cc5c(s4)CCCC5)c3C)cn(C)c2=O)ccc1N1CCN(CC)CC1 [CHMFL-BTK-85]
effect on antibody-dependent NK-cell-mediated cytotoxicity (ADCC) (SK-OV-3 cells): did not affect | Percent Control (MET): 62% | Percent Control (MST1): 100% | Percent Control (PIM3): 80% | Percent Control (MAP4K5): 100% | Percent Control (ALK(C1156Y)): 100% | Percent Control (ABL1-phosphorylated): 72% | Percent Control (TAOK3): 100% | Percent Control (ALK(L1196M)): 100% | Percent Control (p38-gamma): 62% | Percent Control [1]: 100% | Percent Control (TLK1): 99% | IC50 (TXK): 3.313 ± 0.017 µM | IC50 (BMX; read-out: IC50 against BMX): 0.12 ± 0.0037 µM | selectivity over BMX (BMX; vs BTK): 10 fold | Percent Control (FLT3(R834Q)): 100% | Percent Control (MAP3K3): 100% | Percent Control (MYLK4): 94% | Percent Control [2]: 100% | Percent Control (PRKCE): 93% | Percent Control (TIE1): 87% | Percent Control (STK35): 100% | Percent Control (TRPM6): 100% | Percent Control (GRK2): 100% | Percent Control (KIT-autoinhibited): 100% | inhibition of Herceptin-induced IFN-γ secretion in NK cells [3]: no apparent inhibition | Percent Control (p38-delta): 80% | concentration blocking BTK Y223 autophosphorylation [4]: < 10 nM | Percent Control (PRKCI): 100%
